In the oligonucleotide strings, read from the 5' end, every base follows the letter of its sugar. An asterisk marks phosphorothioate; unmarked linkages are phosphodiester. Other units and linkages are bracketed, terminal groups are in braces. A string of capitals states the bases alone. e = 2'-O-(2-methoxyethyl) (MOE); [5mC] = 5-methylcytosine; d = 2'-deoxy (DNA)

Series [1] has as its system growth hormone receptor mRNA. Kind of series: Growth hormone receptor mRNA levels in liver, two-week mouse study. It is filed as in vivo. The method, then:
A two-week study was done in similar fashion to the one-week study in Example 18, this time using ISIS 227446 at doses of 3, 5, 10, 20 and 30 mg/kg. The mismatch control was given at the same doses. Mice were treated with antisense compound or saline every other day for 14 days.
Growth hormone receptor mRNA levels in liver tissue samples from treated and untreated mice in this two-week study were assayed. The growth hormone receptor antisense inhibitor ISIS 227446 reduced growth hormone receptor mRNA levels in liver after the two-week study by 50% at the 20 mg/kg dose relative to saline control (p<0.001). The 30 mg/kg dose of ISIS 227446 yielded a 53% decrease in growth hormone receptor mRNA (p<0.0001). The mismatch control oligonucleotide ISIS 261303 (SEQ ID NO: 267), at 30 mg/kg, reduced growth hormone receptor mRNA levels by approximately 3%.

Series [2] has as its system serum insulin-like growth factor-I. Briefly: Serum IGF-I by radioimmunoassay, 1 week pilot study in Balb/C(a) mice. It is filed as in vivo, mouse. The settings on record: for % IGF-I reduction: 30 mg/kg once every 2 days, serum IGF-I at day 7 compared to saline control at day 7. The method, then: Forty male Balb/C(a) mice weighing 9 to 10 g were placed into cages, 4 animals per cage, and allowed to assimilate into their environment with new littermates ˜1 week prior (Day −7) to the commencement of 1 week study. Mice of this age would be at their maximum growth rate. Their body weights were measured and recorded every second day during this period. When mice weighed 11 g (day −2), a blood sample was collected under anesthesia as described below, and a serum IGF-I assay was performed to determine pre-treatment values and to aid in the assigning of mice to treatment groups in order to reduce animal variability. To obtain the blood sample, the animals were anaesthetized with pentobarbital (50 mg/kg i.p.) and non-fasting blood samples collected exactly 5 minutes later from the retrobulbar plexus through heparinized capillary tubes under light ether anesthesia. The 40 animals were placed into five groups with each group having a similar weight average and similar IGF-I average concentration for the trial.
Animals (n=8/group) were designated to the following five treatment groups:
(§1) Saline, antisense, mismatch control and octreotide samples were prepared, and coded for blinding. Animals were given a subcutaneous dose of saline every second day, and mismatch control or antisense with administration on days 0, 2, 4, 6. Animals were given twice daily doses of 25 μg octreotide. Animals were housed 4 per cage, for the duration of one week. They had access to a pre-determined quantity of standard mouse food and water at all times throughout the experiment. They were housed in a quiet, temperature- and humidity-maintained environment for the entirety of the study. At day 0 and before treatment on each day or second day, the animals had their body weight and food intake measured, enabling the correct dose of agent to be administered. The animals were monitored closely for any changes in fur, skin, eye, locomotion or other changes in behavior. No problems were observed. Every second day from day −7 to day 7 body weight and food intake were measured.
On day 7, one day after the last dose of antisense, and/or after the last octreotide dose, the animals were anaesthetized with pentobarbital (50 mg/kg i.p.) and non-fasting blood samples collected exactly 5 minutes later from the retrobulbar plexus through heparinized capillary tubes under light ether anesthesia (as on day −7 and 0).
At day −2 and day 7, serum IGF-I measurement was done by radioimmunoassay. Serum IGF-I level is the most widely used measure of growth hormone biological activity in human therapy. It is used to measure the efficacy of growth hormone antagonist treatments like Trovert, which block cells' responsiveness to excess growth hormone, and dopamine agonists and octreotide somatostatin […] drugs that block growth hormone secretion from the pituitary.

Another series concerns serum IGF-I. Kind of series: Serum IGF-I, additional 1 week study in mice. It is filed as in vivo, mouse. The settings on record: 50 mg/kg once every 2 days, day 7. The method, then: Male Balb/C(a) mice were prepared and grouped for analysis as in Example 18 above.
Animals (n=10/group) were designated to the following treatment groups:
Animals were treated and serum IGF-I levels were measured as in Example 18 above. Briefly, for the one-week study, mice were given a subcutaneous dose of saline every second day, and mismatch control or antisense with administration on days 0, 2, 4, 6. On day 7, the animals were anaesthetized with pentobarbital and non-fasting blood samples collected exactly 5 minutes later from the retrobulbar plexus through heparinized capillary tubes under light ether anesthesia. Serum IGF-I measurement was done by radioimmunoassay at day 7.

Series [3] in a line: Body weight, growth and organ weights, 1 week pilot study. Particulars: 1 week study; g/total body weight. It is filed as in vivo, mouse. The procedure:
as §1
The serum remaining following the insulin-like growth factor-1 assay was isolated and stored at −80° C. The whole liver was removed rapidly for weighing and snap-frozen in labelled aluminum parcels by submersion in liquid-nitrogen. […]
This confirms published results of others. […] Weight was measured in two ways: weight trend (live animal), and final carcass weight. […]

Regarding “acaaagatccatacctgaga (eA*e[5mC]*eA*eA*eA*dG*dA*dT*d[5mC]*d[5mC]*dA*dT*dA*d[5mC]*d[5mC]*eT*eG*eA*eG*eA; antisense) [ISIS 227446]”, the “reduction of growth hormone receptor mRNA levels in liver relative to saline control” value in series [1] (20 mg/kg) is on record as 50%. In series [1] (30 mg/kg), the “decrease in growth hormone receptor mRNA in liver” value was found to be 53%. Further, the “effect on serum IGF-I” value in series [2] (3 mg/kg once every 2 days, day 7) is “no effect”. Further, the “IGF-I (ng/ml) Day 7” value in series [2] (3 mg/kg sc once every 2 days (days 0, 2, 4, 6)) was 129.63 ± 33.76 ng/mL; in series [2] (30 mg/kg sc once every 2 days (days 0, 2, 4, 6)) it was 56.95 ± 10.34 ng/mL. For the same substance, the “% IGF-I reduction” value was 45% in series [2] and 44.51% in series [2] (listed as ASO). Besides, in series [2] (30 mg/kg sc every second day for one week), the “serum IGF-1, % of the control (saline) group” value is reported as 55%. The “IGF-I (ng/ml) Day −2” value in series [2] (pre-treatment value of the group given 3 mg/kg sc once every 2 days) is 216.23 ± 78.14 ng/mL; in series [2] (pre-treatment value of the group given 30 mg/kg sc once every 2 days), 181.84 ± 71.32 ng/mL. For the same substance, the “reduction of serum IGF-I relative to saline control” value with serum IGF-I was 33%. Besides, the “reduction of serum IGF-I relative to the unrelated control” value in the series with serum IGF-I is on record as 20%. For the same substance, in series [3], the liver weight result is given as “unaffected”.

Source of the values: US8637484B2, “Modulation of growth hormone receptor expression and insulin-like growth factor expression” (Antisense Therapeutic Limited, priority 2003, dated 2014).
